Columns and labels:
Gal-3 (galectin-3) [1] = molecular target: T1, Gal-3 (galectin-3) (Homo sapiens, UniProt P17931); experiment: ELISA-type inhibition and SPR inhibition; type: biochemical; details: glucose non-binding control; PBS pH 7.5
T1 construct: gene LGALS3; ELISA by an established protocol of Elling and co-workers

Gal-3 (galectin-3) [2] = molecular target: T1, Gal-3 (galectin-3); experiment: ELISA-type inhibition of binding to asialofetuin; details: read-out: Gal-3 IC50 ± SD [× 10^-6M]^a)
Text: ELISA-type inhibition of binding to asialofetuin on Gal-3 (galectin-3)

Gal-1 (galectin-1) = molecular target: T2, Gal-1 (galectin-1) (Homo sapiens, UniProt P09382); experiment: ELISA-type inhibition of binding to asialofetuin; details: read-out: Gal-1 IC50 ± SD [× 10^-6M]^a)
T2 construct: gene LGALS1; ELISA by an established protocol of Elling and co-workers
T2 sequence (P09382 2-135): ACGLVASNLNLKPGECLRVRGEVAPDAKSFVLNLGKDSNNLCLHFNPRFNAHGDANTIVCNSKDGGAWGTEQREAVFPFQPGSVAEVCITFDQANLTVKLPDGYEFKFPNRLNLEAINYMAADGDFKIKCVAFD
Text: ELISA-type inhibition of binding to asialofetuin on Gal-1 (galectin-1)

T1 sequence (P17931 2-250): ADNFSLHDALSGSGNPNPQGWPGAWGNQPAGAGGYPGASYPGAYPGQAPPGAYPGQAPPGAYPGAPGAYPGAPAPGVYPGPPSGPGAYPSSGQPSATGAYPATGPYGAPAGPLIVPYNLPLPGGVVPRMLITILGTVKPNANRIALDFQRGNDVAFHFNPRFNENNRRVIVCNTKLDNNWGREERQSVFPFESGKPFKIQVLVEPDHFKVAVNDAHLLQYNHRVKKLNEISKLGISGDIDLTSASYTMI

Structure (SMILES)	no inhibition (Gal-3 (galectin-3) [1])	IC50 (Gal-3 (galectin-3) [2]) [µM]	IC50 (Gal-1 (galectin-1)) [µM]
CC(=O)NCCOCCOCCNC(=O)CCC(=O)NCCN(CCNC(=O)CCC(=O)NCCN(CCNC(=O)CCC(=O)NCCN(CCNC(=O)CCC(=O)NCCN(CCNC(=O)CCC(=O)NCCN(CCNC(=O)CCC(N)=O)C(=O)CCc1cn(CCO[C@H]2O[C@H](CO)[C@@H](O)[C@H](O)[C@H]2O)nn1)C(=O)CCC(=O)Nc1ccc(S(=O)(=O)O)cc1)C(=O)CCc1cn(CCO[C@H]2O[C@H](CO)[C@@H](O)[C@H](O)[C@H]2O)nn1)C(=O)CCC(=O)Nc1ccc(S(=O)(=O)O)cc1)C(=O)CCc1cn(CCO[C@H]2O[C@H](CO)[C@@H](O)[C@H](O)[C@H]2O)nn1 [12b, Glc(1,3,5)-pSO3H Ph(2,4)-6-Ac]	nonbinding carbohydrate ligand (glucose, 9b-13b), we see no inhibition in both ELISA and SPR		
CC(=O)NCCOCCOCCNC(=O)CCC(=O)NCCN(CCNC(=O)CCC(=O)NCCN(CCNC(=O)CCC(=O)NCCN(CCNC(=O)CCC(=O)NCCN(CCNC(=O)CCC(=O)NCCN(CCNC(=O)CCC(N)=O)C(=O)CCc1cn(CCO[C@H]2O[C@H](CO)[C@@H](O)[C@H](O)[C@H]2O)nn1)C(=O)CCC(=O)Nc1ccc(N)cc1)C(=O)CCc1cn(CCO[C@H]2O[C@H](CO)[C@@H](O)[C@H](O)[C@H]2O)nn1)C(=O)CCC(=O)Nc1ccc(N)cc1)C(=O)CCc1cn(CCO[C@H]2O[C@H](CO)[C@@H](O)[C@H](O)[C@H]2O)nn1 [11b, Glc(1,3,5)-pNH2Ph(2,4)-6-Ac]	nonbinding carbohydrate ligand (glucose, 9b-13b), we see no inhibition in both ELISA and SPR		
CC(=O)NCCOCCOCCNC(=O)CCC(=O)NCCN(CCNC(=O)CCC(N)=O)C(=O)CCc1cn([C@@H]2O[C@H](CO)[C@@H](O[C@@H]3O[C@H](CO)[C@H](O)[C@H](O)[C@H]3O)[C@H](O)[C@H]2O)nn1 [1b, Lac(1)-2-Ac]		123 ± 3	296 ± 70
CC(=O)NCCOCCOCCNC(=O)CCC(=O)NCCN(CCNC(=O)CCC(=O)NCCN(CCNC(=O)CCC(=O)NCCN(CCNC(=O)CCC(=O)NCCN(CCNC(=O)CCC(=O)NCCN(CCNC(=O)CCC(N)=O)C(=O)CCc1cn(CCO[C@H]2O[C@H](CO)[C@@H](O)[C@H](O)[C@H]2O)nn1)C(=O)CCC(=O)NCc1ccccc1)C(=O)CCc1cn(CCO[C@H]2O[C@H](CO)[C@@H](O)[C@H](O)[C@H]2O)nn1)C(=O)CCC(=O)NCc1ccccc1)C(=O)CCc1cn(CCO[C@H]2O[C@H](CO)[C@@H](O)[C@H](O)[C@H]2O)nn1 [10b, Glc(1,3,5)-Bz(2,4)-6-Ac]	nonbinding carbohydrate ligand (glucose, 9b-13b), we see no inhibition in both ELISA and SPR		

Reference: article PMC9831253, “Sequence-Defined Heteromultivalent Precision Glycomacromolecules Bearing Sulfonated/Sulfated Nonglycosidic Moieties Preferentially Bind Galectin-3 and Delay Wound Healing of a Galectin-3 Positive Tumor Cell Line in an In Vitro Wound Scratch Assay” (Macromolecular bioscience, 2020)
